Measurements taken from ChEMBL document CHEMBL4354856, “Discovery of 4,6-O-Thenylidene-β-d-glucopyranoside-(2″-acetamido, 3″-acetyl-di-S-5-fluorobenzothizole/5-fluorobenzoxazole)-4'-demethylepipodophyllotoxin as Potential Less Toxic Antitumor Candidate Drugs by Reducing DNA Damage and Less Inhibition of PI3K” (J Med Chem, 2020).
Activity calls are given as the source filed them. No cut-off for these calls is given here.

Experiments:
HepG2 [1] = assay: Cell cycle arrest in human HepG2 cells assessed as accumulation at G2/M phase at 15 uM after 36 hrs by propidium staining based flow cytometry analysis relative to control; assay type: functional
MCF7 = assay: Anticancer activity against human MCF7 cells assessed as inhibition of cell proliferation measured after 48 hrs by MTT assay; assay type: functional, cell-based; settings: MCF7, 48 h
L02 [2] = assay: Induction of apoptosis in human HL7702 cells assessed as increase in BAX level at 25 uM after 30 hrs by Western blot analysis; assay type: cell-based; settings: l02, 30 h
L02 [3] = assay: Induction of DNA damage in human HL7702 cells assessed as effect on gamma-H2AX phosphorylation at 20 uM after 24 hrs by Alexa Fluor 488 staining based fluorescence assay; assay type: cell-based; settings: l02, 24 h
[4] = Acute toxicity in ip dosed C57BL6 mouse assessed as mouse survival administered as single dose for 3 days and monitored for 20 days by Bliss method; assay type: organism-based; settings: in vivo
L02 [5] = assay: Cytotoxicity against human HL7702 cells assessed as inhibition of cell proliferation measured after 48 hrs by MTT assay; assay type: cell-based; settings: L02, 48 h
HepG2 [6] = assay: Induction of DNA damage in human HepG2 cells assessed as increase in H2AX phosphorylation at 20 uM after 24 hrs by Alexa Fluor 488 staining based fluorescence assay; assay type: functional, cell-based
HMEC [7] = assay: Cytotoxicity against human HMEC cells assessed as inhibition of cell proliferation measured after 48 hrs by MTT assay; assay type: cell-based
HepG2 [8] = assay: Antitumor activity against human HepG2 xenografted in ip dosed BALB/c nude mouse administered for 20 days and measured after 20 days by electronic caliper method; assay type: functional; settings: 480 h
[9] = target: DNA topoisomerase 2-alpha (Homo sapiens) (UniProt P11388); assay: Inhibition of human topoisomerase-2alpha mediated decatenation at 25 uM using kinetoplast DNA as substrate after 30 mins in presence of ATP by ethidium bromide staining-based UV imaging analysis
[10] = Acute toxicity in C57BL6 mouse assessed as effect on heart at 30 mg/kg, ip administered for 20 days and measured after 20 days by hematoxylin and eosin staining based assay; assay type: organism-based; settings: in vivo, 480 h
L02 [11] = assay: Genotoxicity in human HL7702 cells assessed as induction of DNA damage at 50 uM after 24 hrs in combination of teniposide by alkaline comet assay; assay type: toxicity, cell-based; settings: l02, 24 h
L02 [12] = assay: Cell cycle arrest in human HL7702 cells assessed as accumulation at G2/M phase at 5 uM after 30 hrs by propidium staining based flow cytometry analysis relative to control; settings: l02, 30 h
[13] = target: DNA topoisomerase 2-alpha (Homo sapiens) (UniProt P11388); assay: Inhibition of human topoisomerase-2alpha mediated decatenation using kinetoplast DNA as substrate after 30 mins in presence of ATP by ethidium bromide staining-based UV imaging analysis
[14] = Acute toxicity in C57BL6 mouse assessed as effect on kidney at 30 mg/kg, ip administered for 20 days and measured after 20 days by hematoxylin and eosin staining based assay; assay type: organism-based; settings: in vivo, 480 h
MRC5 [15] = assay: Cytotoxicity against human MRC5 cells assessed as inhibition of cell proliferation measured after 48 hrs by MTT assay relative to teniposide; assay type: cell-based; settings: mrc5, 48 h
DNA topoisomerase II [16] = target: T1, DNA topoisomerase II (Homo sapiens, UniProt P11388+Q02880); assay: Poison activity at topoisomerase-2 in human HepG2 cell lysate assessed as topoisomerase-2 band depletion after 3 hrs by Western blot analysis; assay type: subcellular
DNA topoisomerase II [17] = target: T1, DNA topoisomerase II; assay: Poison activity at topoisomerase-2 in human HL7702 cell lysate assessed as reduction in topoisomerase-2 band depletion at 50 uM after 3 hrs by Western blot analysis; assay type: ADME, subcellular
HepG2 [18] = assay: Antitumor activity against human HepG2 xenografted in BALB/c nude mouse assessed as tumor growth inhibition at 30 mg/kg, ip administered for 20 days and measured after 20 days by electronic caliper method relative to control; assay type: functional; settings: 480 h, read-out: TGI
HMEC [19] = assay: Cytotoxicity against human HMEC cells assessed as inhibition of cell proliferation measured after 48 hrs by MTT assay relative to teniposide; assay type: cell-based
A549 = assay: Anticancer activity against human A549 cells assessed as inhibition of cell proliferation measured after 48 hrs by MTT assay; assay type: functional, cell-based; settings: A549, 48 h
L02 [20] = assay: Induction of apoptosis in human HL7702 cells assessed as apoptotic cells at 50 uM measured after 42 hrs by Annexin-V/propidium iodide staining based flow cytometry analysis relative to control; assay type: cell-based; settings: l02, 42 h
[21] = Acute toxicity in C57BL6 mouse assessed as effect on body weight at 100 mg/kg, ip administered for 20 days; assay type: organism-based; settings: in vivo, 480 h
[22] = target: DNA topoisomerase 2-alpha (Homo sapiens) (UniProt P11388); assay: Inhibition of human topoisomerase-2alpha mediated decatenation at 50 uM using kinetoplast DNA as substrate after 30 mins in presence of ATP by ethidium bromide staining-based UV imaging analysis relative to control
HepG2 [23] = assay: Antitumor activity against human HepG2 xenografted in BALB/c nude mouse assessed as tumor volume at 30 mg/kg, ip administered for 20 days and measured after 20 days by electronic caliper method (reference value: 960.20 +/- 32.10 mm3); assay type: functional
[24] = Acute toxicity in C57BL6 mouse assessed as effect on lung at 30 mg/kg, ip administered for 20 days and measured after 20 days by hematoxylin and eosin staining based assay; assay type: organism-based; settings: in vivo, 480 h
HepG2 [25] = assay: Cell cycle arrest in human HepG2 cells assessed as accumulation at G2/M phase at 5 uM after 24 hrs by propidium staining based flow cytometry analysis; assay type: functional
L02 [26] = assay: Genotoxicity in human HL7702 cells assessed as induction of DNA damage by measuring tail DNA at 50 uM after 24 hrs by alkaline comet assay (reference value: 3 +/- 1.1 %); assay type: toxicity, cell-based; settings: l02, 24 h
Homo sapiens = organism: Homo sapiens; assay: Induction of PI3K/AKT phosphorylation in human HL7702 cells at 25 uM after 30 hrs by Western blot analysis; assay type: cell-based
HepG2 [27] = assay: Induction of apoptosis in human HepG2 cells assessed as apoptotic cells at 10 uM measured after 42 hrs by Annexin-V/propidium iodide staining based flow cytometry analysis relative to control; assay type: functional
HepG2 [28] = assay: Induction of apoptosis in human HepG2 cells assessed as apoptotic cells at 5 to 15 uM measured after 36 hrs by Annexin-V/propidium iodide staining based flow cytometry analysis relative to control; assay type: functional
HeLa = assay: Anticancer activity against human HeLa cells assessed as inhibition of cell proliferation measured after 48 hrs by MTT assay; assay type: functional, cell-based
[29] = Therapeutic index, ratio of LD50 for acute toxicity in ip dosed C57BL6 mouse assessed as mouse survival administered as single dose for 3 days and monitored for 20 days by Bliss method to ED50 for antitumor activity against human HepG2 xenografted in ip dosed BALB/c nude mouse administered for 20 days and measured after 20 days by electronic caliper method; assay type: organism-based; settings: in vivo, read-out: TI
[30] = Acute toxicity in C57BL6 mouse assessed as effect on liver at 30 mg/kg, ip administered for 20 days and measured after 20 days by hematoxylin and eosin staining based assay; assay type: organism-based; settings: in vivo, 480 h
MRC5 [31] = assay: Cytotoxicity against human MRC5 cells assessed as inhibition of cell proliferation measured after 48 hrs by MTT assay; assay type: cell-based; settings: MRC5, 48 h
L02 [32] = assay: Cytotoxicity against human HL7702 cells assessed as inhibition of cell proliferation measured after 48 hrs by MTT assay relative to teniposide; assay type: cell-based; settings: l02, 48 h
L02 [33] = assay: Induction of apoptosis in human HL7702 cells assessed as increase in PARP cleavage at 25 uM after 30 hrs by Western blot analysis; assay type: cell-based; settings: l02, 30 h
[34] = Cytotoxicity against human H8 cells assessed as inhibition of cell proliferation measured after 48 hrs by MTT assay; assay type: cell-based
HepG2 [35] = assay: Anticancer activity against human HepG2 cells assessed as inhibition of cell proliferation measured after 48 hrs by MTT assay; assay type: functional, cell-based; settings: HepG2, 48 h
L02 [36] = assay: Cell cycle arrest in human HL7702 cells assessed as accumulation at G2/M phase at 5 uM after 30 hrs by propidium staining based flow cytometry analysis; settings: l02, 30 h
HepG2 [37] = assay: Induction of apoptosis in human HepG2 cells assessed as apoptotic cells at 20 uM measured after 42 hrs by Annexin-V/propidium iodide staining based flow cytometry analysis relative to control; assay type: functional
HepG2 [38] = assay: Cell cycle arrest in human HepG2 cells assessed as accumulation at G2/M phase at 5 uM after 24 hrs by propidium staining based flow cytometry analysis relative to control; assay type: functional
[39] = Acute toxicity in C57BL6 mouse assessed as lethality at 100 mg/kg, ip administered for 4 days; assay type: organism-based; settings: in vivo, 96 h
HepG2 [40] = assay: Cell cycle arrest in human HepG2 cells assessed as accumulation at G2/M phase at 20 uM after 36 hrs by propidium staining based flow cytometry analysis relative to control; assay type: functional
L02 [41] = assay: Genotoxicity in human HL7702 cells assessed as induction of DNA damage at 50 uM after 24 hrs by alkaline comet assay; assay type: toxicity, cell-based; settings: l02, 24 h
L02 [42] = assay: Cell cycle arrest in human HL7702 cells assessed as accumulation at G2/M phase at 50 uM after 42 hrs by propidium staining based flow cytometry analysis relative to control; settings: l02, 42 h

Sequence of DNA topoisomerase 2-alpha (Homo sapiens) (P11388 whole entry): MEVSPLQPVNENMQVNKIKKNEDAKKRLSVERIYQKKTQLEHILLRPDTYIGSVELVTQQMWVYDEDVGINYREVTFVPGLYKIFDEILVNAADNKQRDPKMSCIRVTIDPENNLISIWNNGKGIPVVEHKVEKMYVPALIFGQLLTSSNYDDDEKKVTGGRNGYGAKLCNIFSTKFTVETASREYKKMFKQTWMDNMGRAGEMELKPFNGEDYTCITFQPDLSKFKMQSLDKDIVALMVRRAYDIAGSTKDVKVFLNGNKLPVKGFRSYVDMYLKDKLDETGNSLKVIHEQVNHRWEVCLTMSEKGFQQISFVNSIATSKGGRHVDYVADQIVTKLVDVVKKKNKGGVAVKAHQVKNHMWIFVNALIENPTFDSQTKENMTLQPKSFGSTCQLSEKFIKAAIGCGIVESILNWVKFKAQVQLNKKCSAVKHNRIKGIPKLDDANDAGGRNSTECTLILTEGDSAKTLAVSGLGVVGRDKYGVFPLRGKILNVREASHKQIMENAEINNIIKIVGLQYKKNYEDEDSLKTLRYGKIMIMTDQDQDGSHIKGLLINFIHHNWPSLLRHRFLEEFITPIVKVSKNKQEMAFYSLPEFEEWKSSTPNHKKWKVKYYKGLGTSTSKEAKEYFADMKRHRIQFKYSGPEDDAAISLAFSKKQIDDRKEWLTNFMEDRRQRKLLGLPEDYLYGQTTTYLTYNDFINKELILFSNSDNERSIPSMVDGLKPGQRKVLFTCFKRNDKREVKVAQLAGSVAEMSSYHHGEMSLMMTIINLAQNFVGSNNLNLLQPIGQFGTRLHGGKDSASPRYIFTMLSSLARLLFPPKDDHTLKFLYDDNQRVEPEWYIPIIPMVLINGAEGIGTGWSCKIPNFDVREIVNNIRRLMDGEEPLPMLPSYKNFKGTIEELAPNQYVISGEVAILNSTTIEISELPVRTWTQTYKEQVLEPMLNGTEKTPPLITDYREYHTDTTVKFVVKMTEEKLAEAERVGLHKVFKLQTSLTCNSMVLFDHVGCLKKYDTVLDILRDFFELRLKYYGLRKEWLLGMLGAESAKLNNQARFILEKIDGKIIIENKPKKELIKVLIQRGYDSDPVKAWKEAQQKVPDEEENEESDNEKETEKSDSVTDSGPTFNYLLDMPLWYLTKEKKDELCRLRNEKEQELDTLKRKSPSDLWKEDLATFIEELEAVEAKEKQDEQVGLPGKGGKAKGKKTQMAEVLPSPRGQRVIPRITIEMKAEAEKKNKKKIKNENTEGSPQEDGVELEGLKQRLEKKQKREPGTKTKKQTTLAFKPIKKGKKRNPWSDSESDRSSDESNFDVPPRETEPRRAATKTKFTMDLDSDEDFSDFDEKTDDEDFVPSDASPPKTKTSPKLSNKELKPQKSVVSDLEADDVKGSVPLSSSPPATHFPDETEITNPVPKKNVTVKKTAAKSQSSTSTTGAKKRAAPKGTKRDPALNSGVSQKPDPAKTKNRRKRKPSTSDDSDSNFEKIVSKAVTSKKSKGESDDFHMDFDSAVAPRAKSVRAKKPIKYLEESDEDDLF

Structure (SMILES) | IC50 (MCF7) | Activity (L02 [2]) | Activity (L02 [3]) | LD50 at 480 h [4] | IC50 (L02 [5]) | IC50 (HMEC [7]) | ED50 (HepG2 [8]) | inhibition [9] | IC50 (DNA topoisomerase II [16]) | inhibition in vivo at 30 mg/kg (HepG2 [18]) | IC50 (A549) | Activity (L02 [20]) | Activity (HepG2 [23]) | Activity (L02 [26]) | Activity (Homo sapiens) | IC50 (HeLa) | IC50 (MRC5 [31]) | Activity (L02 [33]) | IC50 [34] | IC50 (HepG2 [35]) | further results
COc1cc([C@@H]2c3cc4c(cc3[C@@H](O[C@@H]3O[C@@H]5CO[C@@H](c6cccs6)O[C@H]5[C@H](OC(=O)CSc5nc6cc(F)ccc6s5)[C@H]3NC(=O)CSc3nc5cc(F)ccc5s3)[C@H]3COC(=O)[C@H]23)OCO4)cc(OC)c1O | 10.8 µM | Non-Toxic | Toxic | 208 mg/kg | 121 µM | 122 µM | 32.6 mg/kg | Active | 116.5 µM | 73% | 12.6 µM | 30% | 446.35 mm3 | 7.2% | Active | 152 µM | 122 µM | Non-Toxic | 120 µM | 10.3 µM | Activity (HepG2 [1]): 78%; Activity (HepG2 [6]): Active; Activity [10]: Non-Toxic; Activity (L02 [11]): Toxic; Activity (L02 [12]): 40%; inhibition [13]: Dose-dependent effect; Activity [14]: Non-Toxic; fold change (FC) (MRC5 [15]): 10; Activity (DNA topoisomerase II [17]): Not Active; fold change (FC) (HMEC [19]): 10; Activity [21]: Non-Toxic; inhibition [22]: 100%; Activity [24]: Non-Toxic; Activity (HepG2 [25]): inactive; Activity (HepG2 [27]): 55%; Activity (HepG2 [28]): 30 - 55%; selectivity ratio at 20 days [29]: 6.39; Activity [30]: Non-Toxic; fold change (FC) (L02 [32]): 10
COc1cc([C@@H]2c3cc4c(cc3[C@@H](O[C@@H]3O[C@@H]5CO[C@@H](c6cccs6)O[C@H]5[C@H](O)[C@H]3O)[C@H]3COC(=O)[C@H]23)OCO4)cc(OC)c1O [TENIPOSIDE] | 11.1 µM | Toxic | Toxic | 46.1 mg/kg | 11.5 µM | 12.4 µM | 40.5 mg/kg | Active | 62.7 µM | 48% | 8.2 µM | 88% | 259.15 mm3 | 98.3% | inactive | 14.9 µM | 12.2 µM | Toxic | 22.3 µM | 4.3 µM | Activity (L02 [36]): Toxic; Activity (HepG2 [37]): 71%; Activity (HepG2 [38]): >20%; Activity [39]: Toxic; Activity (HepG2 [40]): 86%; Activity (L02 [41]): Toxic; Activity (L02 [42]): 84%
